Results from ChEMBL document CHEMBL1137357, “Further synthetic and biological studies on vitamin D hormone antagonists based on C24-alkylation and C2alpha-functionalization of 25-dehydro-1alpha-hydroxyvitamin D(3)-26,23-lactones” (J Med Chem, 2006).

Each compound was assayed against T1, Vitamin D3 receptor (Homo sapiens) (UniProt P11473) (assay: Antagonist activity against 1-alpha,25-dihydroxy vitamin D3-induced HL60 cell differentiation by NBT reduction method relative to TEI-9647). Conditions: HL-60.
T1 sequence (whole entry): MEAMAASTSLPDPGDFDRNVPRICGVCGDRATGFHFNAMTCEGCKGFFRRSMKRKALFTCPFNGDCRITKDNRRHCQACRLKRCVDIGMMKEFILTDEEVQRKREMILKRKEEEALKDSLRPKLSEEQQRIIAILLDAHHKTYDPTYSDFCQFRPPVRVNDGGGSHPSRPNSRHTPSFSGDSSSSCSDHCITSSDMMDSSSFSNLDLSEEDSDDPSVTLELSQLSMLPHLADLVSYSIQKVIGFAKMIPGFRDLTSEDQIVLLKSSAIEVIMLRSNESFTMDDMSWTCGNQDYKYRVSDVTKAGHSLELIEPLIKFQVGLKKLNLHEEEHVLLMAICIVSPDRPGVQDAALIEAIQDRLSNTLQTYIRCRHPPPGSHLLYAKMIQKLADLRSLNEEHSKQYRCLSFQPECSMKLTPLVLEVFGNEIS
Format: functional, cell-based
Parameters: scale not given: the % may be the effect or the level left

| Structure (SMILES) | Activity |
| --- | --- |
| C=C1/C(=C\C=C2/CCC[C@]3(C)[C@@H]([C@H](C)C[C@@H]4OC(=O)C(=C)[C@@H]4CC(C)C)CC[C@@H]23)C[C@@H](O)[C@H](OCCCO)[C@@H]1O | 3440% |
| C=C1C(=O)O[C@H](C[C@@H](C)[C@H]2CC[C@H]3/C(=C/C=C4/C[C@@H](O)C[C@H](O)C4=C)CCC[C@]23C)[C@@H]1CC | 13% |
| C=C1/C(=C\C=C2/CCC[C@]3(C)[C@@H]([C@H](C)C[C@H]4OC(=O)C(=C)[C@@H]4CCC)CC[C@@H]23)C[C@@H](O)[C@H](C)[C@@H]1O | 12% |
| C=C1/C(=C\C=C2/CCC[C@]3(C)[C@@H]([C@H](C)C[C@@H]4OC(=O)C(=C)[C@@H]4CCC)CC[C@@H]23)C[C@@H](O)[C@H](CCCO)[C@@H]1O | 4200% |
| C=C1/C(=C\C=C2/CCC[C@]3(C)[C@@H]([C@H](C)C[C@H]4OC(=O)C(=C)[C@@H]4CC(C)C)CC[C@@H]23)C[C@@H](O)[C@H](OCCCO)[C@@H]1O | 42% |
| C=C1C(=O)O[C@@H](C[C@@H](C)[C@H]2CC[C@H]3/C(=C/C=C4/C[C@@H](O)C[C@H](O)C4=C)CCC[C@]23C)[C@@H]1CCC | 60% |
| C=C1/C(=C\C=C2/CCC[C@]3(C)[C@@H]([C@H](C)C[C@H]4OC(=O)C(=C)[C@@H]4CCCC)CC[C@@H]23)C[C@@H](O)[C@H](CCCO)[C@@H]1O | 303% |
| C=C1/C(=C\C=C2/CCC[C@]3(C)[C@@H]([C@H](C)C[C@@H]4OC(=O)C(=C)[C@H]4CC(C)C)CC[C@@H]23)C[C@@H](O)[C@H](OCCCO)[C@@H]1O | 291% |
| C=C1/C(=C\C=C2/CCC[C@]3(C)[C@@H]([C@H](C)C[C@@H]4OC(=O)C(=C)[C@@H]4C)CC[C@@H]23)C[C@@H](O)[C@H](OCCCO)[C@@H]1O | 1970% |
| C=C1/C(=C\C=C2/CCC[C@]3(C)[C@@H]([C@H](C)C[C@@H]4OC(=O)C(=C)C45CC5)CC[C@@H]23)C[C@@H](O)C[C@@H]1O | 284% |
| C=C1/C(=C\C=C2/CCC[C@]3(C)[C@@H]([C@H](C)C[C@H]4OC(=O)C(=C)[C@@H]4CC(C)C)CC[C@@H]23)C[C@@H](O)C[C@@H]1O | 5% |
| C=C1/C(=C\C=C2/CCC[C@]3(C)[C@@H]([C@H](C)C[C@H]4OC(=O)C(=C)[C@@H]4CC(C)C)CC[C@@H]23)C[C@@H](O)[C@H](C)[C@@H]1O | 4% |
| C=C1/C(=C\C=C2/CCC[C@]3(C)[C@@H]([C@H](C)C[C@H]4OC(=O)C(=C)[C@@H]4CC)CC[C@@H]23)C[C@@H](O)[C@H](CCCO)[C@@H]1O | 37% |
| C=C1/C(=C\C=C2/CCC[C@]3(C)[C@@H]([C@H](C)C[C@@H]4OC(=O)C(=C)[C@@H]4CCC)CC[C@@H]23)C[C@@H](O)[C@H](OCCCO)[C@@H]1O | 85100% |
| C=C1C(=O)O[C@H](C[C@@H](C)[C@H]2CC[C@H]3/C(=C/C=C4/C[C@@H](O)C[C@H](O)C4=C)CCC[C@]23C)[C@@H]1C | 18% |
| C=C1C(=O)O[C@H](C[C@@H](C)[C@H]2CC[C@H]3/C(=C/C=C4/C[C@@H](O)C[C@H](O)C4=C)CCC[C@]23C)[C@@H]1CCCC | 17% |
| C=C1/C(=C\C=C2/CCC[C@]3(C)[C@@H]([C@H](C)C[C@@H]4OC(=O)C(=C)[C@@H]4CC(C)C)CC[C@@H]23)C[C@@H](O)C[C@@H]1O | 174% |
| C=C1/C(=C\C=C2/CCC[C@]3(C)[C@@H]([C@H](C)C[C@H]4OC(=O)C(=C)[C@@H]4CC(C)C)CC[C@@H]23)C[C@@H](O)[C@H](CCCO)[C@@H]1O | 32% |
| C=C1/C(=C\C=C2/CCC[C@]3(C)[C@@H]([C@H](C)C[C@@H]4OC(=O)C(=C)[C@@H]4CC(C)C)CC[C@@H]23)C[C@@H](O)[C@H](C)[C@@H]1O | 1220% |
| C=C1C(=O)O[C@@H](C[C@@H](C)[C@H]2CC[C@H]3/C(=C/C=C4/C[C@@H](O)C[C@H](O)C4=C)CCC[C@]23C)[C@@H]1CC | 70% |
| C=C1C(=O)O[C@H](C[C@@H](C)[C@H]2CC[C@H]3/C(=C/C=C4/C[C@@H](O)C[C@H](O)C4=C)CCC[C@]23C)[C@@H]1CCC | 38% |
| C=C1/C(=C\C=C2/CCC[C@]3(C)[C@@H]([C@H](C)C[C@H]4OC(=O)C(=C)[C@@H]4C)CC[C@@H]23)C[C@@H](O)[C@H](OCCCO)[C@@H]1O | 12% |
| C=C1/C(=C\C=C2/CCC[C@]3(C)[C@@H]([C@H](C)C[C@@H]4OC(=O)C(=C)[C@H]4CC)CC[C@@H]23)C[C@@H](O)[C@H](CCCO)[C@@H]1O | 866% |
| C=C1/C(=C\C=C2/CCC[C@]3(C)[C@@H]([C@H](C)C[C@@H]4OC(=O)C(=C)[C@H]4CC)CC[C@@H]23)C[C@@H](O)[C@H](C)[C@@H]1O | 248% |
| C=C1C(=O)O[C@@H](C[C@@H](C)[C@H]2CC[C@H]3/C(=C/C=C4/C[C@@H](O)C[C@H](O)C4=C)CCC[C@]23C)[C@@H]1CCCC | 58% |

Continued, values first:

| Activity | Structure (SMILES) |
| --- | --- |
| 102% | C=C1/C(=C\C=C2/CCC[C@]3(C)[C@@H]([C@H](C)C[C@H]4OC(=O)C(=C)[C@H]4CCCC)CC[C@@H]23)C[C@@H](O)[C@H](C)[C@@H]1O |
| 1660% | C=C1/C(=C\C=C2/CCC[C@]3(C)[C@@H]([C@H](C)C[C@@H]4OC(=O)C(=C)[C@@H]4CCCC)CC[C@@H]23)C[C@@H](O)[C@H](OCCCO)[C@@H]1O |
| 1170% | C=C1/C(=C\C=C2/CCC[C@]3(C)[C@@H]([C@H](C)C[C@@H]4OC(=O)C(=C)C4(C)C)CC[C@@H]23)C[C@@H](O)C[C@@H]1O |
| 1020% | C=C1C[C@H](C[C@@H](C)[C@H]2CC[C@H]3/C(=C/C=C4/C[C@@H](O)[C@H](C)[C@H](O)C4=C)CCC[C@]23C)OC1=O |
| 989% | C=C1/C(=C\C=C2/CCC[C@]3(C)[C@@H]([C@H](C)C[C@@H]4OC(=O)C(=C)[C@@H]4CC(C)C)CC[C@@H]23)C[C@@H](O)[C@H](CCCO)[C@@H]1O |
| 37% | C=C1/C(=C\C=C2/CCC[C@]3(C)[C@@H]([C@H](C)C[C@H]4OC(=O)C(=C)[C@H]4CCCC)CC[C@@H]23)C[C@@H](O)[C@H](OCCCO)[C@@H]1O |
| 86% | C=C1/C(=C\C=C2/CCC[C@]3(C)[C@@H]([C@H](C)C[C@@H]4OC(=O)C(=C)[C@@H]4CCC)CC[C@@H]23)C[C@@H](O)C[C@@H]1O |
| 46% | C=C1/C(=C\C=C2/CCC[C@]3(C)[C@@H]([C@H](C)C[C@H]4OC(=O)C(=C)[C@H]4CCCC)CC[C@@H]23)C[C@@H](O)[C@H](CCCO)[C@@H]1O |
| 12100% | C=C1/C(=C\C=C2/CCC[C@]3(C)[C@@H]([C@H](C)C[C@@H]4OC(=O)C(=C)[C@H]4CCC)CC[C@@H]23)C[C@@H](O)[C@H](OCCCO)[C@@H]1O |
| 8% | C=C1/C(=C\C=C2/CCC[C@]3(C)[C@@H]([C@H](C)C[C@H]4OC(=O)C(=C)[C@@H]4C)CC[C@@H]23)C[C@@H](O)[C@H](CCCO)[C@@H]1O |
| 31% | C=C1/C(=C\C=C2/CCC[C@]3(C)[C@@H]([C@H](C)C[C@H]4OC(=O)C(=C)[C@H]4CC(C)C)CC[C@@H]23)C[C@@H](O)[C@H](CCCO)[C@@H]1O |
| 88% | C=C1/C(=C\C=C2/CCC[C@]3(C)[C@@H]([C@H](C)C[C@H]4OC(=O)C(=C)[C@@H]4CCCC)CC[C@@H]23)C[C@@H](O)[C@H](OCCCO)[C@@H]1O |
| 3750% | C=C1/C(=C\C=C2/CCC[C@]3(C)[C@@H]([C@H](C)C[C@@H]4OC(=O)C(=C)[C@@H]4C)CC[C@@H]23)C[C@@H](O)[C@H](C)[C@@H]1O |
| 66% | C=C1C[C@@H](C[C@@H](C)[C@H]2CC[C@H]3/C(=C/C=C4/C[C@@H](O)[C@H](OCCCO)[C@H](O)C4=C)CCC[C@]23C)OC1=O |
| 27% | C=C1/C(=C\C=C2/CCC[C@]3(C)[C@@H]([C@H](C)C[C@H]4OC(=O)C(=C)[C@H]4CC)CC[C@@H]23)C[C@@H](O)[C@H](OCCCO)[C@@H]1O |
